# Test results as given in patent US9334256B2, “Agents and methods for treating ischemic and other diseases” (NoNO INC., priority 2011, dated 2016).
# Entries after “also recorded” stand apart in the source; their conditions may differ.
# Assays:
# neurons = assay: Sublethal neuronal stretch injury model, survival by PI fluorescence; format: cell-based; details: applied 1 hour after stretch injury, PI fluorescence 24 hours after; FIG. 3
# Procedure: Likewise, TRPM7 inhibitors are also expected to provide neuroprotection to other types of brain injuries. […] This model is described in Arundine et al, (J. Neurosci, 2004:8106-23). TRPM7 inhibitors such as M21 were applied 1 hour after stretch injury and cells were assessed for survival by PI fluorescence 24 hours after the injury. […] Thus, this assay can be predictive of in vivo efficacy.
# TRPM7 = molecular target: T1, TRPM7 (Mus musculus, UniProt Q923J1); assay: PI uptake cell death assay in TRPM7-expressing HEK-293 cells (type of assay from Example 1); format: cell-based, murine; details: Table X
# T1 construct: expressed in transfected cells; host or cells: HEK-293 tSA (HEK-293T) cells, transient transfection with Lipofectamine 2000
# T1 sequence (Q923J1 whole entry): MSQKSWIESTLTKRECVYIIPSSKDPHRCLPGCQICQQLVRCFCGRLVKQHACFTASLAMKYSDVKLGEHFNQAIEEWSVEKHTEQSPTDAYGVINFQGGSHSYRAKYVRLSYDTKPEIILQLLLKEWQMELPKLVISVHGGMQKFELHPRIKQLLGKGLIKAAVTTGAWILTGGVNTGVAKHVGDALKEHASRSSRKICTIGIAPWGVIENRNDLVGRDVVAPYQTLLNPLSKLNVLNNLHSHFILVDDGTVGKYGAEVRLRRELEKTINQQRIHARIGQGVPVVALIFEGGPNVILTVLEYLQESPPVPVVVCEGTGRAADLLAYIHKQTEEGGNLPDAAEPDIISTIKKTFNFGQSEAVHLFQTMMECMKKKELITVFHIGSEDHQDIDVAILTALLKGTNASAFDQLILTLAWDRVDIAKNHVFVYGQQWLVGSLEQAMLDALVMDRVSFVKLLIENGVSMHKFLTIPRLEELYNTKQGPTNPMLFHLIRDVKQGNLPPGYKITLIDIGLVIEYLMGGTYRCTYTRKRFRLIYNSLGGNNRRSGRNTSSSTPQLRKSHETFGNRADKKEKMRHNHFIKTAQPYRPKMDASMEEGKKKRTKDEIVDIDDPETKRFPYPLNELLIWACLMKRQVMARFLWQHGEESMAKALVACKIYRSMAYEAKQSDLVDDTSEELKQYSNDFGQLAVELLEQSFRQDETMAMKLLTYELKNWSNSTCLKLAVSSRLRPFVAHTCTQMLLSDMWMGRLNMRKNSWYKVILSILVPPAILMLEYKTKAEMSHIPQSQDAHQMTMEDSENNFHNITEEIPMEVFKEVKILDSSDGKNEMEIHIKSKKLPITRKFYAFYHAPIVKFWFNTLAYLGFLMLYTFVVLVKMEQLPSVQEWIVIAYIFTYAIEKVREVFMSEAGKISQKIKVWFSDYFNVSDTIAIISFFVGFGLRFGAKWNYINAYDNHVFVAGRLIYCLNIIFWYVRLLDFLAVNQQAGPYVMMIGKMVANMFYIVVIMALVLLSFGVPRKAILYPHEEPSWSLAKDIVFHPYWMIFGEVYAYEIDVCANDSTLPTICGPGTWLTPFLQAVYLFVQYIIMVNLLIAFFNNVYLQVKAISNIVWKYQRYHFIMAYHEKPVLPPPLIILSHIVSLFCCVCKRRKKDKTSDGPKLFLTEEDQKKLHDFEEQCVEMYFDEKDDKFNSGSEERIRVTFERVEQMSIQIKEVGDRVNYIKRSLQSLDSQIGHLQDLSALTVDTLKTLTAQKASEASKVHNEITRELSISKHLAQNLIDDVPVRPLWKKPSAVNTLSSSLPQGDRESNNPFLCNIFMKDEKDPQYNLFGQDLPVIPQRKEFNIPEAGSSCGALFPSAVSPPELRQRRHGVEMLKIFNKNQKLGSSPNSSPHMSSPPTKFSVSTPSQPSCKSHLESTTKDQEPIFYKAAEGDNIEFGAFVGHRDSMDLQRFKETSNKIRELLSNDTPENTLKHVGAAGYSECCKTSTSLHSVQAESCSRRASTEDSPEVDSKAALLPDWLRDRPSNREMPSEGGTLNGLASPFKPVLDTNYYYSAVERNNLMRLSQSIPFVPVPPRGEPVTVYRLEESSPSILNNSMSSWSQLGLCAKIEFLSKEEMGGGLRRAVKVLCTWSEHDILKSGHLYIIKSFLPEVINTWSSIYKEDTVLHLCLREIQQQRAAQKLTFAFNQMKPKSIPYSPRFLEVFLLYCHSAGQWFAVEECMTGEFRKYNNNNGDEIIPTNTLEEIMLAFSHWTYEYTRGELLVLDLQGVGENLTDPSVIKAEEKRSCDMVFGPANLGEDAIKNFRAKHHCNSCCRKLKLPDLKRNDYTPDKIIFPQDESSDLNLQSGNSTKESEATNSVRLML
# [1] = system: rats subjected to lateral FPI; assay: Distance traveled and activity post FPI; format: in vivo, rat; details: FIG. 4B
# Source text: Thus, M21 and TRPM7 inhibitors are effective treatments to reduce the damaging effects of neurotrauma, including concussions.
# cancer cell lines = assay: Cell proliferation studies, cancer cell lines in general; format: cell-based; details: summary statement
# Procedure: Cells were grown to 70% confluency, trypsinized, counted, and seeded in 96-well flat-bottom plates at a final concentration of 2.5×10^3-5.0×10^3 cells/well in growth media containing 5% FBS (Day 0). Other well sizes and cell densities were used successfully as well. Cells were allowed to incubate in growth media for 24 hours to allow for maximum adhesion. Treatment with the test agent began on Day 1 and continued for 72 hours either with or without retreatment. At the 72 hour time point, viable cell numbers are quantified by the CellTiter-Glo® cell viability assay as described above, or using standard MTT, SRB or BrDU assays. Experiments were repeated at least twice with the same concentrations to determine growth inhibitory activity. […] In an alternative format, this assay was used to screen potential TRPM7 inhibitory compounds at a fixed concentration, usually 5 or 10 uM. Alternatively, lower or higher concentrations were used. […] Thus, for the compounds in Table 1, all are potential anti-cancer agents. Some, like 399 and 509, are more general and may be effective against a wide range of cancers. Others, like 2785, are more specific and may be effective against a subset of cancers.
# Data Collection—For the cell proliferation studies, data from each experiment was collected and expressed as % Cell Growth using the following calculation: % Cell Growth=(ftest/fvehicle)×100 Where ftest is the luminescent signal of the tested sample, and fvehicle is the luminescence of the vehicle in which the drug is dissolved (or appropriate measure for the other viability/proliferation measures). Dose response graphs and IC50 values were generated using standard software using the following variable slope equation: […]
smiles,measurement,setting,value
Cc1c(Cc2ccc(Cl)c(Cl)c2)c(=O)oc2cc(O)ccc12 [Compound M21],protection from cell death after stretch injury,neurons,can protect neurons from cell death due to stretch injuries; also recorded: increased protection from cell death
same,IC50,TRPM7,4.97 µM
same,distance traveled and activity post FPI,[1],comparable to uninjured animals
same,inhibition of proliferation of cancer cell lines,cancer cell lines,effective in inhibiting proliferation of a retinoblastoma cell line
